Assay results: ChEMBL document CHEMBL1909046, “DrugMatrix in vitro pharmacology data”

Tests used:
[1] = molecular target: T1, Glucocorticoid receptor (Homo sapiens, UniProt P04150); test: biochemical
T1 sequence (P04150 whole entry): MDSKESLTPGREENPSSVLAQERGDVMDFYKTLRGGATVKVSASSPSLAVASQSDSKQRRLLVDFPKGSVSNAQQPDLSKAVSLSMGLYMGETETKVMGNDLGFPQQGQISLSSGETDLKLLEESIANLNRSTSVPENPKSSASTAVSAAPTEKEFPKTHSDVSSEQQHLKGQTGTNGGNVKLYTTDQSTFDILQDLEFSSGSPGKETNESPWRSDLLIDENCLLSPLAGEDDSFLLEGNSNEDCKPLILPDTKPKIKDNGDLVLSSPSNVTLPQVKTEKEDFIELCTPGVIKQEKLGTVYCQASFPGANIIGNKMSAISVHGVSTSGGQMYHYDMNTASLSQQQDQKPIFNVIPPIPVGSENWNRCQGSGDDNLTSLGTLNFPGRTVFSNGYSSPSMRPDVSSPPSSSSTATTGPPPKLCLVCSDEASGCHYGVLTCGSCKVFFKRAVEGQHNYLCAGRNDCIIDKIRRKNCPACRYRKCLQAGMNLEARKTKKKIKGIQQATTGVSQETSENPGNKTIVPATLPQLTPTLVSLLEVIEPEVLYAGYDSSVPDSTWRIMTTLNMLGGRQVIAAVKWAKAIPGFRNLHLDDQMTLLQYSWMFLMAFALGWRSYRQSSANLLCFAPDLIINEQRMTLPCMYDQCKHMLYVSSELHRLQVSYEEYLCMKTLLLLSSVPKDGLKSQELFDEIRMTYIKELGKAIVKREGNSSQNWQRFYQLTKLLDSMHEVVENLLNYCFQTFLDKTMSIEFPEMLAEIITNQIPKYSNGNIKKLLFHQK

[2] = molecular target: T2, Cytochrome P450 1A2 (Homo sapiens, UniProt P05177)
T2 sequence (P05177 whole entry): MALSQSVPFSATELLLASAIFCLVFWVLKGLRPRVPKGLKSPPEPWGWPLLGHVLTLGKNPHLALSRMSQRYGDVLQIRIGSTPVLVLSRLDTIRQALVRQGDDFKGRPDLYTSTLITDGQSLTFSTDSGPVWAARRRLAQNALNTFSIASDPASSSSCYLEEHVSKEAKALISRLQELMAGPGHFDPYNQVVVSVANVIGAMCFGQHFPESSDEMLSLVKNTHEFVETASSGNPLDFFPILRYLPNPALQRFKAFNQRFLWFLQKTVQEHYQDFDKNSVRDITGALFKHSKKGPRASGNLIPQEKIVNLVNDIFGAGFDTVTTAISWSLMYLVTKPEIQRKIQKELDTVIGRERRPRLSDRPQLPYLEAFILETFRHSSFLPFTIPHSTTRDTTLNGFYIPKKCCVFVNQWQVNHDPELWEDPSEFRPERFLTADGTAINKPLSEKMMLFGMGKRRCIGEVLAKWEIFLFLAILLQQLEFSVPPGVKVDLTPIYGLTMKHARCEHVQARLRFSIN

[3] = molecular target: Cytochrome P450 2C19 (Homo sapiens, UniProt P33261)
Sequence of Cytochrome P450 2C19 (P33261 whole entry): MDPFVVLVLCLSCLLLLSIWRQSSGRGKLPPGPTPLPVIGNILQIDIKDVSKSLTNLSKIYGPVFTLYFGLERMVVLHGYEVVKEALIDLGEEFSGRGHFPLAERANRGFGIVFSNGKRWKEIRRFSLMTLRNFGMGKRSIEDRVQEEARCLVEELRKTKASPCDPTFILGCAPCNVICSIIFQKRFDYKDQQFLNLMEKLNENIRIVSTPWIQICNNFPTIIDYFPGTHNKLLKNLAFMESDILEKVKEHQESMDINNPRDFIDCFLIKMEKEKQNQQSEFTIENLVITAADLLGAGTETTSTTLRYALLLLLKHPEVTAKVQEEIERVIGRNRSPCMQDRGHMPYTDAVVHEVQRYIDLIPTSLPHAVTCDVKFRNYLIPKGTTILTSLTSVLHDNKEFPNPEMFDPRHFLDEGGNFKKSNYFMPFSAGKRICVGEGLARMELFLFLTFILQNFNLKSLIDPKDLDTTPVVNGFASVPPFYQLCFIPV

[4] = molecular target: Cytochrome P450 2C9 (Homo sapiens, UniProt P11712)
Sequence of Cytochrome P450 2C9 (P11712 whole entry): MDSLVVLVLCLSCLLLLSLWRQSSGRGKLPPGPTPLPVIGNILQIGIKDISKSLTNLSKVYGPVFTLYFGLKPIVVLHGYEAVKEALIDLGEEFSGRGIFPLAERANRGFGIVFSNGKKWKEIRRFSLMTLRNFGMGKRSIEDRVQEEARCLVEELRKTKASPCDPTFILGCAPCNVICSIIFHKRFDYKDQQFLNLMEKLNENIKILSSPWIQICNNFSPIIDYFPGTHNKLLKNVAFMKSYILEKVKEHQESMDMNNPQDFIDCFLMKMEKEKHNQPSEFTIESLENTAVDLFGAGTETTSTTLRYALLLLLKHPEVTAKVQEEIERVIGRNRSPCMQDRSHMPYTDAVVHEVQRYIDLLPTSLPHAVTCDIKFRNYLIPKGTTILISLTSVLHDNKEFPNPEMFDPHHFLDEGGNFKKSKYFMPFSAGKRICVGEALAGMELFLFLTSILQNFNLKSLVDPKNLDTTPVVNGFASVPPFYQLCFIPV

[5] = molecular target: T3, Estrogen receptor (Homo sapiens, UniProt P03372); test: biochemical
T3 sequence (P03372 whole entry): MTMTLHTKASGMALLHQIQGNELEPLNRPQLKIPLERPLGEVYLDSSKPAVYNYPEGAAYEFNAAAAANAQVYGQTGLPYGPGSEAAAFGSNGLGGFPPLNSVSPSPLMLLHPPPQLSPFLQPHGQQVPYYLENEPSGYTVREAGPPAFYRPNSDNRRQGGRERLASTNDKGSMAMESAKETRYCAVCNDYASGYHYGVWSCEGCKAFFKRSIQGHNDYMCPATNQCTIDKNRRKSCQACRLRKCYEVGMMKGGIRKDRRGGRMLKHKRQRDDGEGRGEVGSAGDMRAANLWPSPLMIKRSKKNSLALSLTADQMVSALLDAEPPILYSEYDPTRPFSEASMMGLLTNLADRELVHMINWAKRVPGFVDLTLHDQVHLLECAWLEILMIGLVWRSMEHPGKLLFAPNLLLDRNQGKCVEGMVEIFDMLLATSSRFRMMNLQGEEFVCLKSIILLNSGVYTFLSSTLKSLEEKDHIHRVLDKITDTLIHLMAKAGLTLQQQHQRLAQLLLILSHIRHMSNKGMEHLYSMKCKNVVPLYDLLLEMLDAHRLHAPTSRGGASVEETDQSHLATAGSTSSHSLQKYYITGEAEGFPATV

Compound	IC50 [1] [nM]	Ki [1] [nM]	IC50 [3] [nM]	IC50 [5] [nM]	Ki [5] [nM]	further results
C#C[C@]1(O)CC[C@H]2[C@@H]3CCc4cc(O)ccc4[C@H]3CC[C@@]21C [ETHINYL ESTRADIOL]	1710	777				
COc1ccc2cc(CCC(C)=O)ccc2c1 [NABUMETONE]						IC50 [2]: 5000 nM
COc1ccc(Cc2nccc3cc(OC)c(OC)cc23)cc1OC [PAPAVERINE]			762			
O=C(c1ccccc1Cl)N1CCC(Cc2ccccc2)CC1			200			IC50 [4]: 2000 nM
CC(=O)O[C@]1(C(C)=O)CC[C@H]2[C@@H]3C=C(C)C4=CC(=O)CC[C@]4(C)[C@H]3CC[C@@]21C [MEGESTROL ACETATE]	19	8.77				IC50 [4]: 10000 nM
CC[C@]1(O)CC[C@H]2[C@@H]3CCC4=CCCC[C@@H]4[C@H]3CC[C@@]21C			1290	1120	320	
COc1cc(CNC(=O)CCCC/C=C/C(C)C)ccc1O [CAPSAICIN]						IC50 [2]: 3000 nM
O=C(/C=C/c1ccc(O)c(O)c1)OCCc1ccccc1 [CAFFEIC ACID PHENETHYL ESTER]				7910	2260	
C#C[C@]1(O)CC[C@H]2[C@@H]3CCC4=Cc5oncc5C[C@]4(C)[C@H]3CC[C@@]21C [DANAZOL]	4310	1960		17800	5080	
